Our source for the IC50 values is patent US7105564B1, “Pharmaceutical composition comprising a dual antagonist against PGD2/TXA2 receptors having a [2.2.1] or [3.1.1] bicyclic skeleton” (Shionogi & Co., Ltd., priority 1999, dated 2006).

Like-named read-outs stand apart in the source and are kept apart here.

One may read the IC50 as the concentration at which inhibition is half-maximal.

The target of assay [1] is T1, PGD2 receptor (Homo sapiens, UniProt Q13258).
T1 sequence (Q13258 1-359): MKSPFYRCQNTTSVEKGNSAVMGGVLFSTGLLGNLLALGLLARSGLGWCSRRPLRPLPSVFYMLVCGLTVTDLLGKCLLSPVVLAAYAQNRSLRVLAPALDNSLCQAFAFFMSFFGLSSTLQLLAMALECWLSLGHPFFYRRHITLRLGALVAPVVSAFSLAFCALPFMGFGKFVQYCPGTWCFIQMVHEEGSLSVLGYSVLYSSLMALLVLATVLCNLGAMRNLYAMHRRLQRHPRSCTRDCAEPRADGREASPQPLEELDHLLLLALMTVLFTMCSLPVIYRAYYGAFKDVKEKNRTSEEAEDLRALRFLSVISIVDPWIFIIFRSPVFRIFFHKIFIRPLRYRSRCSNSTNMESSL
Briefly: Binding activity to PGD2 receptor in human platelet membrane fraction ([3H]PGD2). Also noted: The platelets were homogenized using a homogenizer (Ultra-Turrax) followed by centrifugation 3 times at 20,000 rpm; from tissue; host or cells: human platelet membrane fraction from blood of healthy volunteers. The protocol: Experiment 1 Binding activity to PGD2 Receptor
(§1) (1) Preparation of Human Platelet Membrane Fraction
Blood was collected using a plastic syringe containing 3.8% sodium citrate from the vein of healthy volunteers (adult male and female), then put into a plastic test tube and mixed by slow-reversion. The sample was then centrifuged at 1800 rpm, for 10 min at room temperature, and the supernatant containing PRP (platelet-rich plasma) was collected. The PRP was recentrifuged at 2300 rpm, for 22 min at room temperature to obtain platelets. The platelets were homogenized using a homogenizer (Ultra-Turrax) followed by centrifugation 3 times at 20,000 rpm, 10 min at 4° C.. to obtain a platelet membrane fraction. After protein determination, the membrane fraction was adjusted to 2 mg/ml and preserved in a refrigerator at −80° C.. until using for the binding test.
(2) Binding to PGD2 Receptor
To a binding-reaction solution (50 mM Tris/HCl, pH 7.4, 5 mM MgCl2) (0.2 ml) were added the human platelet membrane fraction (0.1 mg) and 5 nM [^3H]PGD2 (115 Ci/mmol), and the mixture was reacted at 4° C. for 90 min. After the reaction, the mixture was filtered through a glass fiber filter paper and washed several times with cooled physiological saline, then the radioactivity retained on the filter paper was measured. The specific-binding ratio was calculated by subtracting the non-specific binding ratio which is the radioactivity similarly measured in the presence of 10 μM PGD2 from the total binding.

Assay [2] concerns the target T1, PGD2 receptor. Briefly: Antagonistic activity against PGD2 receptor using human platelet (inhibition of cAMP increase caused by PGD2). It is filed as cell-based. The protocol: Experiment 3 Evaluation of Antagonistic Activity Against PGD2 Receptor Using Human Platelet
Peripheral blood was collected from a healthy volunteer using a syringe in which 1/9 volume of a citric acid/dextrose solution was previously added. The sample was subjected to centrifugation at 180 g for 10 min to obtain the supernatant (PRP: platelet rich plasma). The resultant PRP was washed 3 times with a washing buffer and the number of platelets was counted with a micro cell counter. A suspension adjusted to contain the platelets at a final concentration of 5×10^8/ml was warmed at 37° C., then subjected to the pre-treatment with 3-isobutyl-1-methylxanthine (0.5 mM) for 5 min. To the suspension was added a test compound diluted at various concentration, and 10 minutes later, 0.1 μM PGD2 was added to induce the reaction 2 minutes later, hydrochloric acid was added to terminate the reaction. The platelet was destroyed with an ultrasonic homogenizer. After centrifugation, the cAMP in the supernatant was determined by radioimmunoassay. PGD2 receptor antagonism of a drug was evaluated as follows: the inhibition rate regarding cAMP increased by the addition of PGD2 was determined at each concentration, and the concentration of the drug required for 50% inhibition (IC50) was calculated.

In a further assay the target is T2, TXA2 receptor (Homo sapiens, UniProt P21731).
T2 construct: The human platelet membrane fraction was prepared in accordance with Experiment 1 (1); from tissue; host or cells: human platelet membrane fraction from blood of healthy volunteers
T2 sequence (P21731 1-343): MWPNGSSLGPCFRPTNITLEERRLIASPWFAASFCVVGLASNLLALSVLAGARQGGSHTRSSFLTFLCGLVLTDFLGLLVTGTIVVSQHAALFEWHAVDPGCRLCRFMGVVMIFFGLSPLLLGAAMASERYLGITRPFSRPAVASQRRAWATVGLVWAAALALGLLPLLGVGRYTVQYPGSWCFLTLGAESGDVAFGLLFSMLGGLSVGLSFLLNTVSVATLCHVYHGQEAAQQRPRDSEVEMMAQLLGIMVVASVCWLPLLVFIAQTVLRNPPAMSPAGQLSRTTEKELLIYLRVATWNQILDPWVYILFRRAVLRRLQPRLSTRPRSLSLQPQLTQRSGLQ
Briefly: Binding activity to TXA2 receptor in human platelet membrane fraction ([3H](+)-S-145 sodium salt). As to the method: Experiment 2 Binding activity to TXA2 Receptor
as §1
The human platelet membrane fraction was prepared in accordance with Experiment 1 (1).
(2) Binding to TXA2 Receptor
To a binding-reaction solution (50 mM Tris/HCl, pH 7.4, 10 mM MgCl2) (0.2 ml) were added the human platelet membrane fraction (0.05 mg) and 2 nM Sodium [^3H](+)-(5Z)-7- [3-endo- [(phenylsulfonyl)amino]bicyclo[2.2.1]hept-2-exo-yl]heptenoate (Japanese Patent Publication (Kokoku) No.79060/1993, hereinafter referred to as (+)—S—145 sodium salt) (26.4 Ci/mmol), and the mixture was reacted at room temperature for 90 min. After the reaction, the resultant mixture was filtered through a glass fiber filter paper and washed several times with cooled physiological saline, then the radioactivity retained on the filter paper was measured. The specific-binding ratio was calculated by subtracting the non-specific binding ratio (the radio activity similarly determined in the presence of 10 μM (+)—S—145 sodium salt) from the total binding.

Setting [3] is: 5 nM [3H]PGD2, 4° C., 90 min, read-out: Binding activity to PGD2 receptor in human platelet membrane fraction IC50.
[4] abbreviates: 0.1 μM PGD2, read-out: Inhibitory activity for the increase of cAMP caused by PGD2 in human platelet IC50.
Where [5] appears, read: 2 nM [3H](+)-S-145 sodium salt, room temperature, 90 min, read-out: Binding activity to TXA2 receptor in human platelet membrane fraction IC50.

Regarding `CC1(C)[C@H]2C[C@H](C/C=C\CCCC(=O)O)[C@@H](NC(=O)c3csc4ccccc34)[C@@H]1C2` [Compound B-1, reference compound], the concentration for half-maximal inhibition (IC50) at PGD2 receptor [1] (Comparative Experiment 1, read-out: Experiment 1 Antaginistic activity against PGD2 receptor IC50) came out at 8.2 nM; on PGD2 receptor [2] (Comparative Experiment 1, read-out: Experiment 3 Antaginistic activity against PGD2 receptor IC50) it was 41 nM; at TXA2 receptor (Comparative Experiment 1, read-out: Experiment 2 Antaginistic activity against TXA2 receptor IC50), 3800 nM.
As to `O=C(O)CCCC=CCC1C2CCC(C2)C1NC(=O)c1ccc(S(=O)(=O)c2cccs2)s1` (stereo not drawn) [Compound I-47], the IC50 at PGD2 receptor [1] (setting [3]) amounted to 4.1 nM; at PGD2 receptor [2] (setting [4]) it was 7 nM; at TXA2 receptor (setting [5]), 6.2 nM.
Turning to `O=C(O)CCCC=CCC1C2CCC(C2)C1NC(=O)c1ccc(Sc2cccs2)s1` (stereo not drawn) [Compound I-59], the 50% inhibitory concentration (IC50) on PGD2 receptor [1] (setting [3]) is 0.41 nM; at PGD2 receptor [2] (setting [4]) it was 4.6 nM; at TXA2 receptor (setting [5]) it was 16 nM.
`O=C(O)CCCC=CCC1C2CCC(C2)C1NC(=O)c1ccc(Sc2ccsc2)s1` (stereo not drawn) [Compound I-79]: the results for the concentration for half-maximal inhibition (IC50) on PGD2 receptor [1] (setting [3]), at PGD2 receptor [2] (setting [4]) and at TXA2 receptor (setting [5]) were 0.42 nM, 24 nM and 15 nM, respectively.
Consider `O=C(O)CCCC=CCC1C2CCC(C2)C1NC(=O)c1ccc(S(=O)(=O)c2ccsc2)s1` (stereo not drawn) [Compound I-80], for which the figures for the IC50 on PGD2 receptor [1] (setting [3]), at PGD2 receptor [2] (setting [4]) and at TXA2 receptor (setting [5]) were 6.6 nM, 39 nM and 5.2 nM, respectively.
For `Cc1ccc(S(=O)(=O)c2ccc(C(=O)NC3C4CCC(C4)C3CC=CCCCC(=O)O)s2)s1` (stereo not drawn) [Compound I-82], the results for the IC50 on PGD2 receptor [1] (setting [3]), at PGD2 receptor [2] (setting [4]) and at TXA2 receptor (setting [5]) were 32 nM, 53 nM and 1.8 nM, respectively.
In the case of `O=C(O)CCCC=CCC1C2CCC(C2)C1NC(=O)c1ccc(Cc2ccsc2)s1` (stereo not drawn) [Compound I-88], the figures for the IC50 on PGD2 receptor [1] (setting [3]), at PGD2 receptor [2] (setting [4]) and on TXA2 receptor (setting [5]) were 7.6 nM, 4.7 nM and 78 nM, respectively.
Turning to `O=C(O)CCCC=CCC1C2CCC(C2)C1NC(=O)c1ccc(Cc2cccs2)s1` (stereo not drawn) [Compound I-93], the half-inhibitory concentration (IC50) is 7 nM at PGD2 receptor [1] (setting [3]), 8.4 nM on PGD2 receptor [2] (setting [4]) and 72 nM at TXA2 receptor (setting [5]).
Take `O=C(O)CCCC=CCC1C2CCC(C2)C1NC(=O)c1ccn(S(=O)(=O)c2cccs2)c1` (stereo not drawn) [Compound I-94]: the IC50 turned out to be 1 nM on PGD2 receptor [1] (setting [3]), 10 nM at PGD2 receptor [2] (setting [4]) and 83 nM at TXA2 receptor (setting [5]).
With `O=C(O)CCCC=CCC1C2CCC(C2)C1NC(=O)c1ccc(CSc2cccs2)s1` (stereo not drawn) [Compound I-104], the IC50 at PGD2 receptor [1] (setting [3]) came out at 0.1 nM; at PGD2 receptor [2] (setting [4]), 1.6 nM; on TXA2 receptor (setting [5]), 39 nM.
For `O=C(O)CCCC=CCC1C2CCC(C2)C1NC(=O)c1ccc(SCc2cccs2)s1` (stereo not drawn) [Compound I-106] the same measures were 13 nM, 9.3 nM and 13 nM.
The like results for `Cc1ccc(Cc2ccc(C(=O)NC3C4CCC(C4)C3CC=CCCCC(=O)O)s2)s1` (stereo not drawn) [Compound I-129] were, in that order, 11 nM, 22 nM and 52 nM.
`O=C(O)CCCC=CCC1C2CCC(C2)C1NC(=O)c1ccc(Cc2cc3ccccc3o2)s1` (stereo not drawn) [Compound I-136]: the IC50 turned out to be 23 nM on PGD2 receptor [1] (setting [3]), 15 nM on PGD2 receptor [2] (setting [4]) and 16 nM at TXA2 receptor (setting [5]).
For `O=C(O)CCCC=CCC1C2CCC(C2)C1NC(=O)c1csc2c(Cc3cccs3)cccc12` (stereo not drawn) [Compound I-168] the same measures were 0.46 nM, 29 nM and 34 nM.
`O=C(O)CCCC=CCC1C2CCC(C2)C1NC(=O)c1csc2c(Cc3ccsc3)cccc12` (stereo not drawn) [Compound I-169]: the IC50 on PGD2 receptor [1] (setting [3]) came to 0.61 nM; at PGD2 receptor [2] (setting [4]) it was 26 nM; on TXA2 receptor (setting [5]), 32 nM.
As for `O=C(O)CCCC=CCC1C2CCC(C2)C1NC(=O)c1ccc(Cc2csc3ccccc23)s1` (stereo not drawn) [Compound I-182], the IC50 at PGD2 receptor [1] (setting [3]) is 61 nM; on PGD2 receptor [2] (setting [4]), 11 nM; at TXA2 receptor (setting [5]), 28 nM.
For `CC1(C)C2CC(CC=CCCCC(=O)O)C(NC(=O)c3ccc(S(=O)(=O)n4cccc4)s3)C1C2` (stereo not drawn) [II-15], the half-inhibitory concentration (IC50) came out at 2 nM on PGD2 receptor [1] (setting [3]), 11 nM on PGD2 receptor [2] (setting [4]) and 12 nM at TXA2 receptor (setting [5]).
For `CC1(C)C2CC(CC=CCCCC(=O)O)C(NC(=O)c3ccc(S(=O)(=O)c4cccs4)s3)C1C2` (stereo not drawn) [II-18] the same measures were 0.96 nM, 4 nM and 3.6 nM.
Take `CC1(C)C2CC(CC=CCCCC(=O)O)C(NC(=O)c3ccc(Sc4cccs4)s3)C1C2` (stereo not drawn) [II-21]: the concentration for half-maximal inhibition (IC50) at PGD2 receptor [1] (setting [3]) came to 0.1 nM; at PGD2 receptor [2] (setting [4]), 24 nM; on TXA2 receptor (setting [5]) it was 14 nM.
`Cc1cc(S(=O)(=O)c2ccc(C(=O)NC3C(CC=CCCCC(=O)O)CC4CC3C4(C)C)s2)cs1` (stereo not drawn) [II-30]: the 50% inhibitory concentration (IC50) was determined as 72 nM at PGD2 receptor [1] (setting [3]), 45 nM on PGD2 receptor [2] (setting [4]) and 4 nM on TXA2 receptor (setting [5]).
The like results for `Cc1cccn1S(=O)(=O)c1ccc(C(=O)NC2C(CC=CCCCC(=O)O)CC3CC2C3(C)C)s1` (stereo not drawn) [II-34] were, in that order, 1.5 nM, 3.9 nM and 4.4 nM.
